# In US11312723B2, “Pyranopyrazole and pyrazolopyridine immunomodulators for treatment of autoimmune diseases” (The Rockefeller University, priority 2017, dated 2022):
# Biological target: Human FXIIa (Homo sapiens (Human), UniProt P00748)
# Assay: Factor XIIa (FXIIa) inhibitory activity, chromogenic substrate (Pefachrome XIIa) cleavage
# Format: biochemical
# Settings: 10 min pre-incubation, Pefachrome XIIa 400 μM
# Description: Factor XIIa (FXIIa) Inhibitory Activity:
# In a 96-well clear bottom plate, 80 μl of assay buffer was added to each well. Assay buffer consists of 0.5× Hank's Balanced Salt Solution (Invitrogen), buffered with 25 mM HEPES pH 7.4 (Invitrogen) and 0.5× Tris-buffered saline with Tween-20 0.05% (Santa Cruz Biotechnology). Test compounds were first dissolved in DMSO (Sigma) and then 4 μl were added to test wells containing assay buffer. Serial dilutions using an automated multi-channel pipette were used to generate a concentration range of approximately 1-100 μM. Human FXIIa (Enzyme Research Labs) was diluted in assay buffer to a final concentration of 12.5 nM. 80 μl of this enzyme solution was added to the assay wells. The enzyme/compound mixtures were incubated for 10 minutes at room temperature. Chromogenic substrate (Pefachrome XIIa; Enzyme Research Labs) was added to assay wells at a final concentration of 400 μM. The assay plate was spun for 1 minute at 1500 g and then read at 37° C. in a SpectraMax M2 plate reader (λ=405 nm). Activity was quantified as the rate of change in absorbance, which corresponds to the rate of substrate cleavage. IC50 values were determined as the concentration of inhibitor that produced 50% of the rate of change of control wells without any inhibitor. For compounds with activity <1 μM, the assay was repeated with a lower concentration range, typically from 10-1000 nM.
# Human FXIIa, sequence (P00748 373-615): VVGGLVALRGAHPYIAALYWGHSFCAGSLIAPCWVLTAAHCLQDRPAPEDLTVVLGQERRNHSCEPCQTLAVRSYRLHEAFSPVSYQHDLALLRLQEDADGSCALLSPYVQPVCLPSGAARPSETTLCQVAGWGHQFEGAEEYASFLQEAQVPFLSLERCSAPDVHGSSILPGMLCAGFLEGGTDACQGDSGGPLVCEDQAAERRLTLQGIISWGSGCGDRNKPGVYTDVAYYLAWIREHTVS
# Human FXIIa, sequence (P00748 20-372 partner): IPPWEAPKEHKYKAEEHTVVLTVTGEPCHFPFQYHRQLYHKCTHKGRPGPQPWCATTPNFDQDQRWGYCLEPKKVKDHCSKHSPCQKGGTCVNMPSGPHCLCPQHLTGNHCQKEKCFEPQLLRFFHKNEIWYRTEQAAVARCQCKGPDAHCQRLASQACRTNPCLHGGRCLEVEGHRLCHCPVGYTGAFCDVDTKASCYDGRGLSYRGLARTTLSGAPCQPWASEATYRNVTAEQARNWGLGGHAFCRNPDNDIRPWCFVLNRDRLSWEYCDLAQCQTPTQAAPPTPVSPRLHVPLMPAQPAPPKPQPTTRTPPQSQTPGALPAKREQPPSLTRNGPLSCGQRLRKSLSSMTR
row,SMILES,IC50
1,"CS(=O)(=O)N1CCc2c(nn(C(=O)C3CCNc4ccc(F)cc43)c2N)C1 (single isomer, unassigned) [Example 19, (R*)-(3-amino-6-(methylsulfonyl)-4,5,6,7-tetrahydropyrazolo[3,4-c]pyridin-2-yl)(6-fluoro-1,2,3,4-tetrahydroquinolin-4-yl)methanone]",11 µM
2,"CCc1ccc2c(c1)C(C(=O)n1nc3c(c1N)CCN(S(C)(=O)=O)C3)CCN2 (single isomer, unassigned) [Example 32, (S*)-(3-amino-6-(methylsulfonyl)-4,5,6,7-tetrahydropyrazolo[3,4-c]pyridin-2-yl)(6-ethyl-1,2,3,4-tetrahydroquinolin-4-yl)methanone]",0.02 µM
3,"CCc1ccc2c(c1)C(C(=O)n1nc3c(c1N)CCN(S(C)(=O)=O)C3)CCN2 (single isomer, unassigned) [Example 33, (R*)-(3-amino-6-(methylsulfonyl)-4,5,6,7-tetrahydropyrazolo[3,4-c]pyridin-2-yl)(6-ethyl-1,2,3,4-tetrahydroquinolin-4-yl)methanone]",10 µM
4,"Cc1cccc2c1NCCC2C(=O)n1nc2c(c1N)CCN(S(C)(=O)=O)C2 (single isomer, unassigned) [Example 36, (R*)-(3-amino-6-(methylsulfonyl)-4,5,6,7-tetrahydropyrazolo[3,4-c]pyridin-2-yl)(8-methyl-1,2,3,4-tetrahydroquinolin-4-yl)methanone]",17 µM
5,"Cc1cc(F)cc2c1NCCC2C(=O)n1nc2c(c1N)CCN(S(C)(=O)=O)C2 (single isomer, unassigned) [Example 54, (R*)-(3-amino-6-(methylsulfonyl)-4,5,6,7-tetrahydropyrazolo[3,4-c]pyridin-2-yl)(6-fluoro-8-methyl-1,2,3,4-tetrahydroquinolin-4-yl)methanone]",2.5 µM
6,"CS(=O)(=O)N1CCc2c(nn(C(=O)C3CCNc4c(Cl)cccc43)c2N)C1 (single isomer, unassigned) [Example 59, (R*)-(3-amino-6-(methylsulfonyl)-4,5,6,7-tetrahydropyrazolo[3,4-c]pyridin-2-yl)(8-chloro-1,2,3,4-tetrahydroquinolin-4-yl)methanone]",35 µM
7,"COc1cccc2c1NCCC2C(=O)n1nc2c(c1N)CCN(S(C)(=O)=O)C2 (single isomer, unassigned) [Example 64, (R*)-(3-amino-6-(methylsulfonyl)-4,5,6,7-tetrahydropyrazolo[3,4-c]pyridin-2-yl)(8-methoxy-1,2,3,4-tetrahydroquinolin-4-yl)methanone]",35 µM
8,"CCc1cc(C)c2c(c1)C(C(=O)n1nc3c(c1N)CCN(S(C)(=O)=O)C3)CCN2 (single isomer, unassigned) [Example 70, (3-amino-6-(methylsulfonyl)-4,5,6,7-tetrahydropyrazolo[3,4-c]pyridin-2-yl)((R*)-6-ethyl-8-methyl-1,2,3,4-tetrahydroquinolin-4-yl)methanone]",5 µM
9,"Nc1c2c(nn1C(=O)C1CCNc3c(Cl)cccc31)CNCC2 (single isomer, unassigned) [Example 72, (S*)-(3-amino-4,5,6,7-tetrahydropyrazolo[3,4-c]pyridin-2-yl)(8-chloro-1,2,3,4-tetrahydroquinolin-4-yl)methanone]",0.07 µM
10,"Nc1c2c(nn1C(=O)C1CCNc3c(Cl)cccc31)CNCC2 (single isomer, unassigned) [Example 73, (R*)-(3-amino-4,5,6,7-tetrahydropyrazolo[3,4-c]pyridin-2-yl)(8-chloro-1,2,3,4-tetrahydroquinolin-4-yl)methanone]",7 µM
11,"Cc1cc(F)cc2c1NCCC2C(=O)n1nc2c(c1N)CCOC2 (single isomer, unassigned) [Example 77, (R*)-(3-amino-4,5-dihydropyrano[3,4-c]pyrazol-2(7H)-yl)(6-fluoro-8-methyl-1,2,3,4-tetrahydroquinolin-4-yl)methanone]",70 µM
12,"Cc1cccc2c1NCCC2C(=O)n1nc2c(c1N)CCN(S(C)(=O)=O)C2C (single isomer, unassigned) [Example 78, (3-amino-7-methyl-6-(methylsulfonyl)-4,5,6,7-tetrahydropyrazolo[3,4-c]pyridin-2-yl)(8-methyl-1,2,3,4-tetrahydroquinolin-4-yl)methanone]",> 80 µM
13,"Cc1cccc2c1NCCC2C(=O)n1nc2c(c1N)CCN(S(C)(=O)=O)C2C (single isomer, unassigned) [Example 79, (3-amino-7-methyl-6-(methylsulfonyl)-4,5,6,7-tetrahydropyrazolo[3,4-c]pyridin-2-yl)(8-methyl-1,2,3,4-tetrahydroquinolin-4-yl)methanone]",3 µM
14,"Cc1cc(F)cc2c1NCC[C@@H]2C(=O)n1nc2c(c1N)CNCC2 (single isomer, unassigned) [Example 82, (S*)-(3-amino-4,5,6,7-tetrahydropyrazolo[4,3-c]pyridin-2-yl)(6-fluoro-8-methyl-1,2,3,4-tetrahydroquinolin-4-yl)methanone]",0.07 µM
15,"CS(=O)(=O)N1CCc2c(nn(C(=O)C3CCCc4[nH]c(Cl)cc43)c2N)C1 (single isomer, unassigned) [Example 132, (R*)-(3-amino-6-(methylsulfonyl)-4,5,6,7-tetrahydro-pyrazolo[3,4-c]pyridin-2-yl)(2-chloro-4,5,6,7-tetrahydro-1H-indol-4-yl)methanone]",3 µM
16,"CS(=O)(=O)N1CCc2c(nn(C(=O)[C@@H]3CCNc4ccccc43)c2N)C1 (single isomer, unassigned) [Example 134, (R*)-(3-amino-6-(methylsulfonyl)-4,5,6,7-tetrahydro-pyrazolo[3,4-c]pyridin-2-yl)(1,2,3,4-tetrahydro-quinolin-4-yl)methanone]",28 µM
17,"Nc1c2c(nn1C(=O)[C@@H]1CCNc3ccc(F)cc31)CNCC2 (single isomer, unassigned) [Example 147, (R*)-(3-amino-4,5,6,7-tetrahydro-pyrazolo[3,4-c]pyridin-2-yl)(6-fluoro-1,2,3,4-tetrahydro-quinolin-4-yl)methanone]",10 µM
18,"CCN1CCc2c(nn(C(=O)[C@@H]3CCNc4ccc(F)cc43)c2N)C1 (single isomer, unassigned) [Example 166, (R*)-(3-amino-6-ethyl-4,5,6,7-tetrahydro-pyrazolo[3,4-c]pyridin-2-yl)(6-fluoro-1,2,3,4-tetrahydro-quinolin-4-yl)methanone]",10 µM
19,"CCN1CCc2c(nn(C(=O)[C@@H]3CCNc4c(C)cc(F)cc43)c2N)C1 (single isomer, unassigned) [Example 171, (R*)-(3-amino-6-ethyl-4,5,6,7-tetrahydro-pyrazolo[3,4-c]pyridin-2-yl)(6-fluoro-8-methyl-1,2,3,4-tetrahydro-quinolin-4-yl)methanone]",4.5 µM
20,"CCN1CCc2c(nn(C(=O)[C@@H]3CCNc4c(C)cccc43)c2N)C1 (single isomer, unassigned) [Example 174, (R*)-(3-amino-6-ethyl-4,5,6,7-tetrahydro-pyrazolo[3,4-c]pyridin-2-yl)(8-methyl-1,2,3,4-tetrahydro-quinolin-4-yl)methanone]",8 µM
21,"Cc1cccc2c1NCC[C@H]2C(=O)n1nc2c(c1N)CCNC2 (single isomer, unassigned) [Example 177, (R*)-(3-amino-4,5,6,7-tetrahydro-pyrazolo[3,4-c]pyridin-2-yl)(8-methyl-1,2,3,4-tetrahydro-quinolin-4-yl)methanone]",30 µM
